Results taken from patent EP4772497A1, “POLYMORPHS OF NITROGEN-CONTAINING HETEROCYCLIC COMPOUNDS, AND USES THEREOF” (BNH Research Co., Ltd., priority 2023, dated 2025).

Columns and labels:
APP/PS1 mice = assay: TC synaptic potency and GABA/AMPA ratio in the sensory cerebral cortex after dosing; assay type: in vivo; conditions: form C 1 mg/kg orally, aducanumab 5 mg/kg i.v.
Description: Using APP/PS1 mice (15 months old, Taconic Biosciences), an animal model of Alzheimer's disease, the efficacy of crystalline form C and aducanumab (Creative Biolabs) was evaluated when administered alone or in combination, respectively. A control group and four experimental groups were prepared as follows (see Table 14).
For the control antibody, an isotype antibody was administered intravenously, and for the vehicle, 200 µL of a mixed solution of DMSO (10):PEG400 (44):saline (55) was administered orally. Five mice were used for each treatment group.
Aducanumab was administered at a dose of 5 mg/kg, and the control antibody, which is an inactivated form of aducanumab, was administered at a dose of 5 mg/kg. For the intravenous administration, a total of four injections were administered into the tail vein on the starting day of the experiment and at one-week intervals thereafter.
For oral administration, 1 mg/kg of the compound of the present disclosure (crystalline form C, BnH-015B) or a vehicle was administered orally once daily for about 11 to 13 days, starting about 2 weeks after the initiation of the experiment.
Meanwhile, the efficacy of the compound against Alzheimer's disease was evaluated by measuring the potency and the GABA/AMPA ratio in the sensory cerebral cortex. […]

OPN = assay: Mouse proteome profiling array analysis of somatosensory cortex homogenates; assay type: in vivo; conditions: APP/PS1 mice, 1 mg/kg orally for 14 days, cerebral cortex, vs vehicle-treated control group
Description: (§1) To evaluate the efficacy of crystalline form C of the present disclosure in inhibiting amyloid-beta protein accumulation, mouse proteomic profiling array analysis and Bielschowsky silver staining were performed. 15-week-old APP/PS1 mice were used in the experiment, and crystalline form C of the present disclosure (1 mg/kg of BnH-015B) or a vehicle was administered orally.
(§2) Relative levels of mouse cytokines, chemokines, and growth factors were determined using a membrane-based antibody array kit (Proteome Profiler Mouse XL Cytokine Array Kit, ARY028 R&D Systems, Inc., Minneapolis, USA) which features 111 capture antibodies coated in duplicate on a nitrocellulose membrane. Homogenates of the somatosensory cortex of APP/PS1 mice were prepared and tested according to the manufacturer's instructions. The array was detected using an X-ray film (Super RX, Fujifilm, Tokyo, Japan), and the film was read using an Epson scanner (L655 series, Epson, Suwa, Japan), followed by image analysis using ImageJ with the Protein Array Analyzer Macro (National Institutes of Health, Bethesda, MD, USA). […]
(§3) Statistical analysis was performed using GraphPad Prism 9.5.0 software (San Diego, CA, USA). […] All data are expressed as mean ± SEM.

IL-33 = assay: as above; assay type: in vivo; conditions: APP/PS1 mice, 1 mg/kg orally for 14 days, cerebral cortex, vs vehicle-treated control group
Description: as §1, §2, §3

[1] = Bulk stability of crystalline form C under stress conditions (HPLC, XRPD, color); assay type: physicochemical; conditions: for Color / Purity (HPLC) Initial purity:99.9%: 1 week
Description: Crystalline form C was placed in an open container at 25°C/92.5% RH, in an open container at 40°C/75% RH, and in a closed container at 60°C for 1 week, respectively. After exposure to the stress conditions, the samples were characterized by XRPD and HPLC, and examined for color changes.
Reference is made to Experimental Method 6 for the HPLC conditions.

[2] = BS1: Solid state, 25°C/92.5% RH, open container
[3] = BS2: Solid state, 40°C/75% RH, open container
[4] = BS3: Solid state, 60°C, closed container

C[C@@H]1CC[C@H](C(=O)O)CN1C(=O)Cc1ccc(F)cc1Cl [Crystalline form C, (3S,6R)-1-(2-(2-chloro-4-fluorophenyl)acetyl)-6-methylpiperidine-3-carboxylic acid]
balance of excitation/inhibition (GABA/AMPA ratio) (APP/PS1 mice): maintaining the balance of excitation/inhibition | excitatory TC synaptic potency (TC potency) (APP/PS1 mice): increased excitatory TC synaptic potency | OPN expression (OPN): suppressed | expression level of IL-33 (IL-33): significantly increased | Color [1, 2]: No color change | Purity (HPLC) Initial purity:99.9% [1, 2]: 99.9% | Color [1, 3]: No color change | Purity (HPLC) Initial purity:99.9% [1, 3]: 99.9% | Color [1, 4]: No color change | Purity (HPLC) Initial purity:99.9% [1, 4]: 99.9% | bulk stability ([1]; from HPLC and XRPD results after 1 week stress): high bulk stability both physically and chemically
